Columns and labels:
Format in all cases: in vivo
[1] = system: ryegrass, Italian (Italian ryegrass, Lolium multiflorum); experiment: Test C preemergence, Italian ryegrass; settings: 0 is no effect, 100 is complete control
Procedure, shortened: (§1)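 Steps: sow in loam soil blended with sand; treat soil preemergence by directed spray, or treat young plants (2–10 cm, one to two leaves) postemergence; hold in greenhouse 10 or 12 days; rate injury visually relative to untreated controls on a 0–100 scale.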

[2] = system: blackgrass (Alopecurus myosuroides); experiment: Test C postemergence, blackgrass; settings: visual injury, 0 to 100 scale (0 no effect, 100 complete control)
Procedure, shortened: as §1

kochia (Bassia scoparia) = experiment: Test C postemergence, kochia; settings: for Kochia plant response rating: visual injury, 0 to 100 scale (0 no effect, 100 complete control); for Plant response rating (0 to 100 scale), Kochia: 0 is no effect, 100 is complete control
Procedure, shortened: as §1

rice (Oryza sativa) = experiment: Test D flooded paddy test, rice; set-up: key: 0 = no effect, 100 = complete control; settings: 250 g ai/ha, Flood; applied to paddy water at 2-leaf stage; visual rating after 13 days; scale 0 (no effect) to 100 (complete control)
Procedure, shortened: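 Under 3 cm of standing water, kept constant after treatment, 2-leaf plants received compound via the paddy water. Ratings on a 0–100 control scale were assigned visually after 13 greenhouse days; a dash denotes no test result.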

[3] = system: ryegrass, Italian (Italian ryegrass, Lolium multiflorum); experiment: Test C postemergence, Italian ryegrass; settings: for Ryegrass, Italian plant response rating: visual injury, 0 to 100 scale (0 no effect, 100 complete control); for Plant response rating (0 to 100 scale), Ryegrass, Italian: 0 is no effect, 100 is complete control
Procedure, shortened: as §1

[4] = system: galium (catchweed bedstraw, Galium aparine); experiment: Test C postemergence, galium; settings: for Galium plant response rating: visual injury, 0 to 100 scale (0 no effect, 100 complete control); for Plant response rating (0 to 100 scale), Galium: 0 is no effect, 100 is complete control
[5] = system: wheat (Triticum aestivum); experiment: Test C preemergence, wheat; settings: 0 is no effect, 100 is complete control
[6] = system: foxtail, giant (giant foxtail, Setaria faberi); experiment: Test C postemergence, giant foxtail; settings: for Foxtail, Giant plant response rating: visual injury, 0 to 100 scale (0 no effect, 100 complete control); for Plant response rating (0 to 100 scale), Foxtail, Giant: 0 is no effect, 100 is complete control

| SMILES | Plant response rating (0 to 100 scale), Ryegrass, Italian ([1]; 31 g ai/ha Preemergence) | Plant response rating (0 to 100 scale), Ryegrass, Italian ([1]; 125 g ai/ha Preemergence) | Blackgrass plant response rating ([2]; 31 g ai/ha Postemergence) | Kochia plant response rating (kochia (Bassia scoparia); 31 g ai/ha Postemergence) | Plant response rating (0 to 100 scale), Kochia (kochia (Bassia scoparia); 125 g ai/ha Postemergence) | Plant response rating, Rice (rice (Oryza sativa)) | Ryegrass, Italian plant response rating ([3]; 31 g ai/ha Postemergence) | Plant response rating (0 to 100 scale), Ryegrass, Italian ([3]; 125 g ai/ha Postemergence) | Galium plant response rating ([4]; 31 g ai/ha Postemergence) | Plant response rating (0 to 100 scale), Galium ([4]; 125 g ai/ha Postemergence) | Plant response rating (0 to 100 scale), Wheat ([5]; 31 g ai/ha Preemergence) | Plant response rating (0 to 100 scale), Wheat ([5]; 125 g ai/ha Preemergence) | Foxtail, Giant plant response rating ([6]; 31 g ai/ha Postemergence) | Plant response rating (0 to 100 scale), Foxtail, Giant ([6]; 125 g ai/ha Postemergence) | Ryegrass, Italian plant response rating ([3]; 125 g ai/ha Postemergence) | Blackgrass plant response rating ([2]; 125 g ai/ha Postemergence) | Kochia plant response rating (kochia (Bassia scoparia); 125 g ai/ha Postemergence) | Galium plant response rating ([4]; 125 g ai/ha Postemergence) | Foxtail, Giant plant response rating ([6]; 125 g ai/ha Postemergence) |
| --- | --- | --- | --- | --- | --- | --- | --- | --- | --- | --- | --- | --- | --- | --- | --- | --- | --- | --- | --- |
| Cc1cc(C)c(N2CCC(OCC3CC3)C2=O)cc1NS(=O)(=O)C(F)(F)F (stereo not shown) [Compound 22] | 100 | 100 | 20 | 60 | 70 | 55 | 70 | 80 | 100 | 100 | 90 | 100 | 20 | 60 | – | – | – | – | – |
| C#CCO/N=C1\CCN(c2cc(NS(=O)(=O)C(F)(F)F)c(C)cc2C)C1=O [Compound 13, N-[2,4-dimethyl-5-[2-oxo-3-[(2-propyn-1-yloxy)imino]-1-pyrrolidinyl]phenyl]-1,1,1-trifluoromethanesulfonamide] | 40 | 100 | 80 | 90 | 90 | 35 | 60 | 60 | 100 | 100 | 90 | 100 | 60 | 90 | – | – | – | – | – |
| Cc1cc(C)c(N2CCC(OC3CC3)C2=O)cc1NS(=O)(=O)C(F)(F)F (single isomer, unassigned) [Compound 30] | 100 | 100 | 50 | 80 | 90 | 75 | 90 | – | 80 | 100 | 90 | 100 | 50 | 80 | 100 | – | – | – | – |
| Cc1c(NS(=O)(=O)C(F)(F)F)cc(N2CCCC(OC3CC3)C2=O)c(C)c1F (stereo not shown) [Compound 35] | 100 | 100 | 50 | 50 | 90 | 0 | 50 | – | 70 | 100 | 20 | 100 | 40 | 90 | 60 | – | – | – | – |
| Cc1c(N2CCC(OC3CCC3)C2=O)cc(N(COC(=O)C(C)(C)C)S(=O)(=O)C(F)(F)F)c(C)c1F (stereo not shown) [Compound 28] | 30 | 90 | 10 | 50 | 80 | 30 | 40 | – | 90 | 100 | 20 | 30 | 30 | 70 | 40 | – | – | – | – |
| Cc1cc(C)c(N2CCC(O)C2=O)cc1NS(=O)(=O)C(F)(F)F (stereo not shown) [Compound 14] | 40 | 100 | 10 | 50 | 70 | 25 | 60 | 100 | 100 | 100 | 50 | 100 | 20 | 90 | – | – | – | – | – |
| Cc1cc(C)c(N2CCC(OC3COC3)C2=O)cc1NS(=O)(=O)C(F)(F)F (stereo not shown) [Compound 34] | 40 | 80 | 30 | 80 | 90 | 25 | 40 | – | 100 | 100 | 30 | 80 | 40 | 90 | 90 | – | – | – | – |
| CC#CCOC1CCN(c2cc(NS(=O)(=O)C(F)(F)F)c(C)cc2C)C1=O (stereo not shown) [Compound 60] | 70 | 100 | 50 | 100 | – | 35 | 50 | – | 100 | – | 40 | 100 | 80 | – | 70 | 90 | 90 | 100 | 90 |
| Cc1cc(Cl)c(N(COC(=O)C(C)(C)C)S(=O)(=O)C(F)(F)F)cc1N1CCC(OC2CC2)C1=O (stereo not shown) [Compound 33] | 20 | 100 | 0 | 80 | 90 | 45 | 20 | – | 100 | 100 | 10 | 40 | 50 | 90 | 90 | – | – | – | – |

From US20240158348A1, “HERBICIDAL CYCLIC AMIDES N-SUBSTITUTED WITH A HALOALKYLSULFONYLANILIDE GROUP” (FMC Corporation, priority 2021, published 2024)
